“Also recorded” adds a separate entry of the source. Where two headings read alike, the source gives them in different places.

In data set [1] the test system is cardiac tissue. Briefly: conduction and refractoriness in the cardiac tissue.
The test system of data set [2] is arrhythmia. Briefly: therapeutic dose. The settings on record: in vivo.
In data set [3] the test system is canine cardiac Purkinje fibers. Briefly: action potential duration and upstroke by standard electrophysiological techniques in normal canine Purkinje fibres. It is filed as cell-based. The text has this: The action of the compounds of this invention is attributed to their ability to prolong the action potential of the cardiac tissue. Therefore, they are Class III antiarrhythmic agents within the Vaughan-Williams classification of antiarrhythmic agents. Such activity has been analyzed in several procedures, for instance, utilizing standard electrophysiological techniques to measure resting potential, action potential amplitude, duration, rate of rise and refractory periods of normal canine Purkinje fibres; and also utilizing re-entrant arrhythmias induced by programmed electrical stimulation in the conscious dog.

Another data set is described as follows: local anesthetic action. Conditions: doses up to 50-100 times the concentration which prolongs action potential duration by 20%.
For data set [4], the system named is cardiovascular function. Description: cardiovascular / hemodynamic depression in vivo. Conditions: doses 10 to 30 times the therapeutic dose (1-3 mg/kg).
The test system of data set [5] is ganglionic and vagal transmission. Briefly: effects on ganglionic and vagal transmission. The class given is in vivo. The settings on record: doses up to 10 mg/kg (i.e., 3-10 times the effective dose).
Data set [6] concerns re-entrant ventricular tachycardia. Briefly: model of re-entrant ventricular tachycardia in dogs. It is filed as in vivo, dog. The settings on record: anesthetized dogs; times more potent than acecainide.
Data set [7] concerns cardiovascular function. Conditions: cited from earlier work; for cardiovascular / hemodynamic depression in vivo: doses approximating the therapeutic dose; for depression of cardiac function: Class I drugs.
Data set [8] concerns cardiac tissue. Conditions: cited from earlier work; for effect on conduction: known drugs.
The test system of another data set is man. The settings on record: cited from earlier work; for drug induced lupus erythematosis: in man.
For data set [9] the following is noted: cited from earlier work.
In data set [10] the test system is arrhythmia. Conditions: cited from earlier work.
The test system of another data set is cardiac action potential. The settings on record: in vitro; Goodman & Gilman, 6th Ed., 1980, pg. 768; cited from earlier work.
Data set [11] has as its system ganglionic and vagal transmission. The settings on record: in vivo; literature; cited from earlier work.

Take `CS(=O)(=O)Nc1ccc(C(=O)NCCNCc2ccccc2)cc1.Cl` [4-[(Methylsulfonyl)amino]-N-[2-((phenylmethyl)amino)ethyl]benzamide hydrochloride]: the “conduction disturbances in the heart / effect on conduction” value with cardiac tissue [1] is “no conduction disturbances in the heart”. This molecule showed a therapeutic dose in the data set on arrhythmia [2] of 1 to 3 mg/kg. Moreover, in [3], the “effect on action potential duration” value is listed as “prolong action potential duration” and the “effect on action potential upstroke” value is on record as “without slowing the action potential upstroke (it may be increased)”. The local anesthetic action entry in “local anesthetic action” is given as “No local anesthetic action”. The “cardiovascular depression in vivo” value in the data set on cardiovascular function [4] is reported as “no evidence for cardiovascular depression”. For the same molecule, the “effects on ganglionic or vagal transmission” value in data set [5] is “nor is there any evidence for effects on ganglionic or vagal transmission”. The “potency relative to acecainide in a model of re-entrant ventricular tachycardia” value in data set [6] was determined as 10 times.

For the molecule `CCCCCCCNCCNC(=O)c1ccc(NS(C)(=O)=O)cc1.Cl` [N-[2-(Heptylamino)ethyl]-4-[(methylsulfonyl)amino]benzamide hydrochloride], the “conduction disturbances in the heart / effect on conduction” value in the data set with cardiac tissue [1] is “no conduction disturbances in the heart”. In the data set with arrhythmia [2], the therapeutic dose lay within 1 to 3 mg/kg. In data set [3], the “effect on action potential duration” value is “prolong action potential duration” and the “effect on action potential upstroke” value is reported as “without slowing the action potential upstroke (it may be increased)”. In addition, the local anesthetic action result in “local anesthetic action” was “No local anesthetic action”. Also, the “cardiovascular depression in vivo” value in the data set on cardiovascular function [4] is recorded as “no evidence for cardiovascular depression”. In addition, the “effects on ganglionic or vagal transmission” value in data set [5] is listed as “nor is there any evidence for effects on ganglionic or vagal transmission”. Besides, the “potency relative to acecainide in a model of re-entrant ventricular tachycardia” value in data set [6] is listed as 10 times.

As for `CCN(CC)CCNC(=O)c1ccc(NC(C)=O)cc1` [acecainide], the “cardiovascular / hemodynamic depression in vivo” value in the data set with cardiovascular function [7] is recorded as “causes such depression at doses approximating the therapeutic dose”. The prolongation of refractoriness result in the data set on cardiac tissue [8] (known drug) is “does prolong refractoriness”. Moreover, the effect on conduction entry in the data set on cardiac tissue [8] is recorded as “little effect on conduction of the cardiac action potential”. For the same molecule, the “drug induced lupus erythematosis” value with man was “shown to cause lupus”. Also, the “incidence of lupus relative to procainamide” value with man (versus procainamide) is given as “significantly lower than for procainamide”. For the same molecule, the deacetylation in man entry in [9] was “deacetylated in man”. In the data set on bacteria (Ames Test), the “mutagenic activity relative to procainamide (Ames Test)” value is “one-half as active”. Besides, the antiarrhythmic activity entry in the data set on arrhythmia [10] (reported) is recorded as “antiarrhythmic activity”.

Turning to `CC(C)N(CCC(C(N)=O)(c1ccccc1)c1ccccn1)C(C)C` (stereo not shown) [disopyramide], the “depression of cardiac function” value with cardiovascular function [7] was “depress cardiac function”. The effect on conduction entry in the data set on cardiac tissue [8] is “slowing conduction”.

Take `CCN(CC)CCNC(=O)c1ccc(N)cc1` [procainamide]: in the data set with cardiovascular function [7], the “depression of cardiac function” value is on record as “depress cardiac function” and the “cardiovascular / hemodynamic depression in vivo” value is recorded as “causes cardiovascular depression; also recorded: causes such depression at doses approximating the therapeutic dose”. In the data set with cardiac action potential, the “effect on action potential duration” value is “prolongs action potential duration” and the “effect on action potential upstroke” value is on record as “slows action potential upstroke”. For the same molecule, the effect on conduction result in the data set with cardiac tissue [8] is listed as “slowing conduction”. The “drug induced lupus erythematosis” value in the data set on man is listed as “drug induced lupus erythematosis”. Moreover, the “level showing significant mutagenic potential (Ames Test)” value in the data set with bacteria (Ames Test) was ≤ 0.2 mg/plate. For the same molecule, the therapeutic dose with arrhythmia [10] (in vivo, literature) was 20 to 40 mg/kg. Also, the “ganglionic and vagal transmission” value in data set [11] was “blocks ganglionic and vagal transmission”.

`C=C[C@H]1C[N@@]2CC[C@H]1C[C@@H]2[C@@H](O)c1ccnc2ccc(OC)cc12` [quinidine]: the “depression of cardiac function” value in the data set with cardiovascular function [7] was “depress cardiac function”. Also, the effect on conduction entry in the data set with cardiac tissue [8] is given as “slowing conduction”.

The values are drawn from patent publication US4629739A, “Substituted sulfonamidobenzamides and method of treating arrhythmias” (priority 1985, dated 1986).
